Assay results: US20250019339A1, “SOLVENT COMPOUNDS FOR USE AS REPLACEMENTS FOR SLOW EVAPORATING SOLVENTS” (TBF ENVIRONMENTAL TECHNOLOGY INC., priority 2018, published 2025)

Legend:
Assay type in all cases: physicochemical
[1] = Specific gravity
[2] = Evaporation rate
[3] = Vapour pressure; settings: @25° C.
[4] = Boiling point
[5] = Flash point, PMCC closed cup; settings: PMCC (Penske Martin Closed Cup)
Experimental: (§1) (420.8° F.) • Flash Point: 85.5° C.

[6] = Kauri-Butanol value
[7] = Sustained combustion tests
Experimental: as §1

Structure (SMILES): CCCCC(CC)COC(=O)OC (stereo not shown) [BibaSol, 2-ethylhexyl methyl carbonate]
- Specific Gravity [1]: 0.916
- Evaporation rate [2]: 0.04
- Vapour pressure [3]: 0.09 mm Hg
- Boiling Point [4]: 216 °C
- Flash Point [5]: 85.5 °C
- Kauri-Butanol Value [6]: 77.5
- Sustained combustion [7]: did not sustain combustion
